Tested on: 422866-222-R5-J1-PDC spheroids with HUVEC/MSC, viability
Test: Anticancer human tumor 422866-222-R5-J1-PDC patient-derived pancreatic adenocarcinoma cell line growth inhibition [GQUAD]
Conditions: for IC50: curve of first compound; for viability, T/C: stronger effect = lower value
How it was run: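 Viability of tumor cells grown as complex spheroids with endothelial and stromal cells, exposed to drug combinations. Top concentration at or near clinical Cmax (else 10 microM), diluted in half-log increments.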

[1] = second compound 0.0316 µM, first compound 0.0316 µM
[2] = second compound 0.0316 µM, first compound 0.1 µM
[3] = second compound 0.0316 µM, first compound 0.316 µM
[4] = second compound 0.0316 µM, first compound 1 µM
[5] = second compound 0.0316 µM, first compound 3.16 µM
[6] = second compound 0.0316 µM, first compound 10 µM
[7] = second compound 0.1 µM, first compound 0.0316 µM
[8] = second compound 0.1 µM, first compound 0.1 µM
[9] = second compound 0.1 µM, first compound 0.316 µM
[10] = second compound 0.1 µM, first compound 1 µM
[11] = second compound 0.1 µM, first compound 3.16 µM
[12] = second compound 0.1 µM, first compound 10 µM
[13] = second compound 0.316 µM, first compound 0.0316 µM
[14] = second compound 0.316 µM, first compound 0.1 µM
[15] = second compound 0.316 µM, first compound 0.316 µM
[16] = second compound 0.316 µM, first compound 1 µM
[17] = second compound 0.316 µM, first compound 3.16 µM
[18] = second compound 0.316 µM, first compound 10 µM
[19] = second compound 1 µM, first compound 0.0316 µM
[20] = second compound 1 µM, first compound 0.1 µM
[21] = second compound 1 µM, first compound 0.316 µM
[22] = second compound 1 µM, first compound 1 µM
[23] = second compound 1 µM, first compound 3.16 µM
[24] = second compound 1 µM, first compound 10 µM
[25] = second compound 3.16 µM, first compound 0.0316 µM
[26] = second compound 3.16 µM, first compound 0.1 µM
[27] = second compound 3.16 µM, first compound 0.316 µM
[28] = second compound 3.16 µM, first compound 1 µM
[29] = second compound 3.16 µM, first compound 3.16 µM
[30] = second compound 3.16 µM, first compound 10 µM
[31] = second compound 10 µM, first compound 0.0316 µM
[32] = second compound 10 µM, first compound 0.1 µM
[33] = second compound 10 µM, first compound 0.316 µM
[34] = second compound 10 µM, first compound 1 µM
[35] = second compound 10 µM, first compound 3.16 µM
[36] = second compound 10 µM, first compound 10 µM
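Also: spheroids exposed to compounds for seven days before reading.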
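For viability, T/C in this document: percent viability relative to DMSO vehicle control taken as 100%.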

C=CC(=O)N1CCN(c2nc(=O)n(-c3c(C)ccnc3C(C)C)c3nc(-c4c(O)cccc4F)c(F)cc23)C(C)C1 (stereo not drawn) + Cc1cnc(CNC(=O)c2c(=O)c3ccc(N4CCCN(C)CC4)nc3n3c2sc2ccccc23)cn1
IC50 (second compound 0.0316 µM): < 31.6 nM | IC50 (second compound 0.1 µM): < 31.6 nM | IC50 (second compound 0.316 µM): < 31.6 nM | IC50 (second compound 1 µM): < 31.6 nM | IC50 (second compound 3.16 µM): < 31.6 nM | IC50 (second compound 10 µM): < 31.6 nM | viability, T/C [1]: 41.2% | viability, T/C [2]: 32.1% | viability, T/C [3]: 28.1% | viability, T/C [4]: 19.9% | viability, T/C [5]: 33.4% | viability, T/C [6]: 30.6% | viability, T/C [7]: 40.4% | viability, T/C [8]: 30.4% | viability, T/C [9]: 26.7% | viability, T/C [10]: 25.7% | viability, T/C [11]: 32.6% | viability, T/C [12]: 30.6% | viability, T/C [13]: 36.8% | viability, T/C [14]: 30.4% | viability, T/C [15]: 27.2% | viability, T/C [16]: 29% | viability, T/C [17]: 34% | viability, T/C [18]: 33.7% | viability, T/C [19]: 29.3% | viability, T/C [20]: 28.6% | viability, T/C [21]: 30.2% | viability, T/C [22]: 28.1% | viability, T/C [23]: 35.9% | viability, T/C [24]: 37.7% | viability, T/C [25]: 32% | viability, T/C [26]: 32.4% | viability, T/C [27]: 29.8% | viability, T/C [28]: 27.9% | viability, T/C [29]: 37.3% | viability, T/C [30]: 36.4% | viability, T/C [31]: 30.5% | viability, T/C [32]: 23.3% | viability, T/C [33]: 28.9% | viability, T/C [34]: 27.8% | viability, T/C [35]: 33.5% | viability, T/C [36]: 34.2%

CCc1c2c(nc3ccc(O)cc13)-c1cc3c(c(=O)n1C2)COC(=O)[C@]3(O)CC + Cc1cnc(CNC(=O)c2c(=O)c3ccc(N4CCCN(C)CC4)nc3n3c2sc2ccccc23)cn1
IC50 (second compound 0.0316 µM): 1.87 nM | IC50 (second compound 0.1 µM): 15.9 nM | IC50 (second compound 0.316 µM): 25.5 nM | IC50 (second compound 1 µM): 73.2 nM | IC50 (second compound 3.16 µM): 62.2 nM | IC50 (second compound 10 µM): 106 nM | viability, T/C (second compound 0.0316 µM, first compound 0.000999 µM): 56.2% | viability, T/C (second compound 0.0316 µM, first compound 0.00316 µM): 42.2% | viability, T/C (second compound 0.0316 µM, first compound 0.00999 µM): 44.1% | viability, T/C [1]: 41.3% | viability, T/C (second compound 0.0316 µM, first compound 0.0999 µM): 37.7% | viability, T/C [3]: 24.5% | viability, T/C (second compound 0.1 µM, first compound 0.000999 µM): 66.8% | viability, T/C (second compound 0.1 µM, first compound 0.00316 µM): 59.2% | viability, T/C (second compound 0.1 µM, first compound 0.00999 µM): 50.4% | viability, T/C [7]: 46.3% | viability, T/C (second compound 0.1 µM, first compound 0.0999 µM): 44.9% | viability, T/C [9]: 34.8% | viability, T/C (second compound 0.316 µM, first compound 0.000999 µM): 75.4% | viability, T/C (second compound 0.316 µM, first compound 0.00316 µM): 63.1% | viability, T/C (second compound 0.316 µM, first compound 0.00999 µM): 56.4% | viability, T/C [13]: 47.7% | viability, T/C (second compound 0.316 µM, first compound 0.0999 µM): 46.6% | viability, T/C [15]: 30.2% | viability, T/C (second compound 1 µM, first compound 0.000999 µM): 73.4% | viability, T/C (second compound 1 µM, first compound 0.00316 µM): 76% | viability, T/C (second compound 1 µM, first compound 0.00999 µM): 59.6% | viability, T/C [19]: 59.4% | viability, T/C (second compound 1 µM, first compound 0.0999 µM): 49.3% | viability, T/C [21]: 28.2% | viability, T/C (second compound 3.16 µM, first compound 0.000999 µM): 70.2% | viability, T/C (second compound 3.16 µM, first compound 0.00316 µM): 77.4% | viability, T/C (second compound 3.16 µM, first compound 0.00999 µM): 62.5% | viability, T/C [25]: 55.7% | viability, T/C (second compound 3.16 µM, first compound 0.0999 µM): 46.5% | viability, T/C [27]: 26.3% | viability, T/C (second compound 10 µM, first compound 0.000999 µM): 72.5% | viability, T/C (second compound 10 µM, first compound 0.00316 µM): 74.8% | viability, T/C (second compound 10 µM, first compound 0.00999 µM): 68% | viability, T/C [31]: 60.2% | viability, T/C (second compound 10 µM, first compound 0.0999 µM): 54.9% | viability, T/C [33]: 22.1%

Cc1cccc(N(C)C(=O)C2C(O)CCN2c2nc(C)cc(C(F)(F)F)c2C#N)c1 (stereo not drawn) + Cc1cnc(CNC(=O)c2c(=O)c3ccc(N4CCCN(C)CC4)nc3n3c2sc2ccccc23)cn1
IC50 (second compound 0.0316 µM): > 10000 nM | IC50 (second compound 0.1 µM): > 10000 nM | IC50 (second compound 0.316 µM): > 10000 nM | IC50 (second compound 1 µM): > 10000 nM | IC50 (second compound 3.16 µM): > 10000 nM | IC50 (second compound 10 µM): > 10000 nM | viability, T/C [1]: 95% | viability, T/C [2]: 82.2% | viability, T/C [3]: 83.9% | viability, T/C [4]: 92.8% | viability, T/C [5]: 90.5% | viability, T/C [6]: 88.7% | viability, T/C [7]: 95.9% | viability, T/C [8]: 86.3% | viability, T/C [9]: 86.8% | viability, T/C [10]: 83.7% | viability, T/C [11]: 102% | viability, T/C [12]: 90.9% | viability, T/C [13]: 85.8% | viability, T/C [14]: 90.5% | viability, T/C [15]: 98.9% | viability, T/C [16]: 83.7% | viability, T/C [17]: 85.3% | viability, T/C [18]: 85.5% | viability, T/C [19]: 82% | viability, T/C [20]: 85.8% | viability, T/C [21]: 86.1% | viability, T/C [22]: 79.7% | viability, T/C [23]: 94.1% | viability, T/C [24]: 91.6% | viability, T/C [25]: 73.7% | viability, T/C [26]: 80% | viability, T/C [27]: 86.1% | viability, T/C [28]: 79.7% | viability, T/C [29]: 96.5% | viability, T/C [30]: 78.8% | viability, T/C [31]: 75.3% | viability, T/C [32]: 75.6% | viability, T/C [33]: 75% | viability, T/C [34]: 86.5% | viability, T/C [35]: 89% | viability, T/C [36]: 77.7%

O=C(c1cc(Cc2n[nH]c(=O)c3ccccc23)ccc1F)N1CCN(C(=O)C2CC2)CC1 + Cc1cnc(CNC(=O)c2c(=O)c3ccc(N4CCCN(C)CC4)nc3n3c2sc2ccccc23)cn1
IC50 (second compound 0.0316 µM): > 10000 nM | IC50 (second compound 0.1 µM): > 10000 nM | IC50 (second compound 0.316 µM): > 10000 nM | IC50 (second compound 1 µM): > 10000 nM | IC50 (second compound 3.16 µM): > 10000 nM | IC50 (second compound 10 µM): > 10000 nM | viability, T/C [1]: 108% | viability, T/C [2]: 89% | viability, T/C [3]: 84.8% | viability, T/C [4]: 83.4% | viability, T/C [5]: 80.5% | viability, T/C [6]: 65.2% | viability, T/C [7]: 91.9% | viability, T/C [8]: 84.4% | viability, T/C [9]: 80.5% | viability, T/C [10]: 83.7% | viability, T/C [11]: 80.2% | viability, T/C [12]: 77.6% | viability, T/C [13]: 74% | viability, T/C [14]: 77.9% | viability, T/C [15]: 78.8% | viability, T/C [16]: 84% | viability, T/C [17]: 85.2% | viability, T/C [18]: 77.1% | viability, T/C [19]: 76.2% | viability, T/C [20]: 76.6% | viability, T/C [21]: 84% | viability, T/C [22]: 76.5% | viability, T/C [23]: 80.3% | viability, T/C [24]: 70.4% | viability, T/C [25]: 83.3% | viability, T/C [26]: 73.7% | viability, T/C [27]: 83.2% | viability, T/C [28]: 91.2% | viability, T/C [29]: 83.6% | viability, T/C [30]: 76.5% | viability, T/C [31]: 70% | viability, T/C [32]: 79.4% | viability, T/C [33]: 77.8% | viability, T/C [34]: 72.7% | viability, T/C [35]: 89.5% | viability, T/C [36]: 69.2%
